Assay results from patent publication US20250222169A1, “PHOTOINTIATOR, BIOINK INCLUDING THE SAME, AND METHODE OF MANUFACTURING HYDROGEL” (PUSAN NATIONAL UNIVERSITY INDUSTRY-UNIVERSITY COOPERATION …, priority 2024, published 2025).

Tests used:
[1] = Molar extinction coefficient by UV-visible absorption spectra in distilled water; type: physicochemical; conditions: at about 405 nm, 10 mm quartz cuvettes
Source text: FIG. 5 is a graph of a molar extinction coefficient (ε)-wavelength of Examples according to the present disclosure.

[2] = test system: Murine NIH-3T3 fibroblasts; test: Cytotoxicity of the photoinitiator (cell viability of fibroblasts); type: cell-based; conditions: concentration of about 0.2% (w/v), about 24 hours
Procedure: Murine NIH-3T3 fibroblasts purchased from ATCC (Manassas, VA, USA) were cultured in a cell culture dish in a size of about 100 mm along with DMEM supplemented with about 10% FBS and penicillin-streptomycin (about 100 UI/ml). The cultured cells were kept at about 37° C. in a sterile culture machine (Labogene, Seoul, Korea) containing about 5% CO2 until reaching the confluence.
To conduct cell viability analysis, fibroblasts were seeded into 24-well-plates (2×10^4 cells/well) and cultured in a sterile culture machine at about 37° C. for about 12 hours, and then the media were removed.
In particular, by substituting with highly biocompatible Mg^2+ ions, it was identified that there was a remarkable effect on reduction in the cytotoxicity.

[3] = in water at about 25° C.

SMILES: Cc1cc(C)c(C(=O)P(=O)([O-])c2ccccc2)c(C)c1.[Li+] [LAP, Lithium phenyl-2,4,6-trimethylbenzoylphosphination]
- molar extinction coefficient [1]: about 29 M^−1·cm^−1
- cell viability [2]: about 46%
- maximum solubility [3]: about 159.7 mM
